From US20240383869A1, “ARYLACETYL INHIBITORS OF TG2 AND USES THEREOF” (UNIVERSITY OF OTTAWA, priority 2021, published 2024)
Read-outs that look alike come from different tables or passages of the source.

What was measured:
hTG2 = biological target: T1, hTG2 (Homo sapiens, UniProt P21980); experiment: biochemical; conditions: for Ki: read-out: KI (converted)
T1 sequence (P21980 1-687): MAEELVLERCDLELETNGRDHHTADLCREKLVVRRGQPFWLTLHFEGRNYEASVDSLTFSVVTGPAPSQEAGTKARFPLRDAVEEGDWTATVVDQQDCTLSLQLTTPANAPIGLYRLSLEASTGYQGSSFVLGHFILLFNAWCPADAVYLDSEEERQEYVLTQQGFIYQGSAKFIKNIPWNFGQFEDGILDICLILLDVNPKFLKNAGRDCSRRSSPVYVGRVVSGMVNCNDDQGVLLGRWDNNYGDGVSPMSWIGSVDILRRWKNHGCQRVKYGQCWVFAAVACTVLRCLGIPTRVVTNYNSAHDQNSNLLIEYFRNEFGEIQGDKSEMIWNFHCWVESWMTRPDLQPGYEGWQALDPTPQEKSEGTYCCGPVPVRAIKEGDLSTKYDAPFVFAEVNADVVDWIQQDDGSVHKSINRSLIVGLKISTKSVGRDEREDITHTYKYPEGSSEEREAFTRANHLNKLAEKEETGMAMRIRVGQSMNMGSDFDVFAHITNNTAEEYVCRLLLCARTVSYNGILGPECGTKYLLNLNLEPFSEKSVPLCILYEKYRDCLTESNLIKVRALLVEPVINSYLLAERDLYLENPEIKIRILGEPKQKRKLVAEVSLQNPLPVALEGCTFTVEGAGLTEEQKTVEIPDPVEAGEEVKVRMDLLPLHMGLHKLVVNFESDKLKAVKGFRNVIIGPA
Description: The ability of the compounds to inhibit TG2 transamidase activity and the kinetics of TG2 inhibition were investigated using a colorimetric activity assay, as follows:
Colorimetric transamidase activity assay. The activities of hTG1, hTG2 and hTG6 were measured via a colorimetric assay using the chromogenic substrate Cbz-Glu(γ-p-nitrophenyl ester)Gly (AL5), as described (Leblanc, A. et al., “Kinetic studies of guinea pig liver transglutaminase reveal a general-base-catalyzed deacylation mechanism.” Biochemistry 2001, 40 (28), 8335-8342). Assays were conducted at 25° C. in 50 mM MOPS buffer (pH 6.95) containing 7.5 mM CaCl2. […] The substrate AL5 was prepared in as a stock solution in DMSO such that the final concentration of this co-solvent was constant at 2.5% v/v. Stock solutions of the inhibitors were made in water ranging in concentration from 100-500 μM. The reaction was initiated with the addition of enzyme, 0.10 μM hTG1, 0.25 μM hTG2 (4.6 mU/mL) or 0.32 μM hTG6. Formation of hydrolysis product, p-nitrophenolate (pNP), was monitored at 405 nm in a polystyrene 96-well microplate using a BioTek Synergy 4 plate reader. The observed first-order rate constants of inactivation (kobs) were determined via non-linear regression fit to a mono-exponential model (Eqn 1) of absorbance versus time curves. These rate constants (kobs) were in turn fit to a saturation kinetics model (Eqn 2), by non-linear regression, providing the kinetic parameters kinact and KI, as previously described by Stone and Hofsteenge (Stone, S. R. and Hofsteenge, J., “Specificity of activated human protein C.” Biochem. J. 1985, 230 (2), 497-502). […] Experiments were completed in triplicate at minimum.
Fitting of this time-dependent inactivation to a monoexponential equation gave first-order rate constants, kobs. […] In some cases, the kinetic data were fitted to a linear double reciprocal equation.

SCC-13 cells = experiment: ECS cell invasion through Matrigel (Transwell); assay type: cell-based; conditions: 0-100 μM inhibitor, 18 h, read-out: EC50 for inhibition of ECS invasion
Description: One well-known property of tumour-initiating cells associated with cancer metastasis is the enhanced ability to invade Matrigel (collagen). For example, it has been shown that epidermal cancer stem (ECS) cells invade Matrigel more efficiently than non-stem cancer cells, and that these properties are associated with enhanced tumour formation (Adhikary, G. et al., PLoS ONE 2013, 8, e84324. https://doi.org/10.1371/journal.pone.0084324). We have shown previously that ˜20 μM of NC9 and 3.9 μM of VA4 can reduce ECS cell invasion through Matrigel by ˜50% relative to vehicle-treated cells (Akbar, A. et al., J. Med. Chem. 2017, 60, 7910-7927. https://doi.org/10.1021/acs.jmedchem.7b01070; Fisher, M. L. et al., Oncotarget 2015, 6, 20525-20539. https://doi.org/10.18632/oncotarget.3890).
Materials and Methods for cell invasion data. To measure cell invasion, Matrigel (Corning, catalogue no. 354234) was diluted to 250 μg/mL and 120 μL was added to the upper chambers of a Transwell plate (Corning, no. 353097, 1-cm diameter, 8-μm pore size) and allowed to solidify. SCC-13 cells were suspended in spheroid medium (Fisher, M. L. et al., Cancer Res. 2016, 76, 7265-7275. https://doi.org/10.1158/0008-5472.can-16-2032; Adhikary, G. et al., Carcinogenesis 2015, 36, 800-810. https://doi.org/10.1093/carcin/bgv064) containing 1% foetal calf serum (FCS), and 20,000 cells were plated into each upper chamber atop the Matrigel. The bottom chamber contained spheroid medium supplemented with 10% FCS and 0-100 μM of inhibitor. After incubation for 18 h in a 37° C. incubator, cells in the top chamber were removed with a swab and cells on the lower surface of the membrane were fixed with 4% paraformaldehyde and the nuclei were stained with 4′,6-diamidino-2-phenylindole. Cell number was counted in multiple fields (n=4) using a fluorescence microscope, normalized with respect to the number counted in the presence of vehicle only, and expressed as mean±standard deviation.

[1] = fit to saturation kinetics model, 25° C., pH 6.95, 100 μM AL5
[2] = fit to saturation kinetics model, 25° C., pH 6.95, 100 μM AL5, read-out: kinact (converted)
[3] = fit to saturation kinetics model, 25° C., pH 6.95, 100 μM AL5, read-out: kinact/KI (converted)
[4] = values determined using a double-reciprocal analysis
[5] = values determined using a double-reciprocal analysis, read-out: kinact (converted)
[6] = values determined using a double-reciprocal analysis, read-out: kinact/KI (converted)

SMILES | Ki (hTG2; [1]) | kinact (hTG2; [2]) | kinact/KI (hTG2; [3]) | also measured
C=CC(=O)NCCCC[C@H](NS(C)(=O)=O)C(=O)N1CCN(C(=O)c2cccc3ccccc23)CC1 [Inhibitor 91, (S)-N-(6-(4-(1-naphthoyl)piperazin-1-yl)-5-(methylsulfonamido)-6-oxohexyl)acrylamide] | 25.3 ± 7.1 µM | 0.0095 s⁻¹ | 377 M⁻¹ s⁻¹ | –
C=CC(=O)NCCCC[C@H](NC(=O)CCCc1ccccc1)C(=O)N1CCN(C(=O)c2cccc3ccccc23)CC1 [Inhibitor 69, (S)-N-(1-(4-(1-naphthoyl)piperazin-1-yl)-6-acrylamido-1-oxohexan-2-yl)-4-phenylbutanamide] | 5.3 ± 0.6 µM | 0.0035 s⁻¹ | 660 M⁻¹ s⁻¹ | –
C=CC(=O)NCCCC[C@H](NC(=O)Cc1cccc(Cl)c1Cl)C(=O)N1CCN(C(=O)c2cccc3ccccc23)CC1 [Inhibitor 78, (S)-N-(6-(4-(1-naphthoyl)piperazin-1-yl)-5-(2-(2,3-dichlorophenyl)acetamido)-6-oxohexyl)acrylamide] | 2.7 ± 2.8 µM | 0.00767 s⁻¹ | 2830 M⁻¹ s⁻¹ | –
C=CC(=O)NCCCC[C@H](NC(=O)c1ccc(F)cc1)C(=O)N1CCN(C(=O)c2cccc3ccccc23)CC1 [Inhibitor 64, (S)-N-(1-(4-(1-naphthoyl)piperazin-1-yl)-6-acrylamido-1-oxohexan-2-yl)-4-fluorobenzamide] | 16.2 ± 7.5 µM | 0.015 s⁻¹ | 923 M⁻¹ s⁻¹ | Ki (hTG2; [4]): 11.6 µM; kinact (hTG2; [5]): 0.0117 s⁻¹; kinact/KI (hTG2; [6]): 1010 M⁻¹ s⁻¹
C=CC(=O)NCCCC[C@H](NC(=O)C(C)(C)C)C(=O)N1CCN(C(=O)c2cccc3ccccc23)CC1 [Inhibitor 37, (S)-N-(6-(4-(1-naphthoyl)piperazin-1-yl)-6-oxo-5-pivalamidohexyl)acrylamide] | 8.8 ± 3.6 µM | 0.00817 s⁻¹ | 937 M⁻¹ s⁻¹ | –
C=CC(=O)NCCCC[C@H](NC(=O)c1cn(C)cn1)C(=O)N1CCN(C(=O)c2cccc3ccccc23)CC1 [Inhibitor 22, (S)-N-(1-(4-(1-naphthoyl)piperazin-1-yl)-6-acrylamido-1-oxohexan-2-yl)-1-methyl-1H-imidazole-4-carboxamide] | 22.3 ± 5 µM | 0.00467 s⁻¹ | 210 M⁻¹ s⁻¹ | –
C=CC(=O)NCCCC[C@H](NC(=O)Cc1ccccc1OC)C(=O)N1CCN(C(=O)c2cccc3ccccc23)CC1 [Inhibitor 75, (S)-N-(6-(4-(1-naphthoyl)piperazin-1-yl)-5-(2-(2-methoxyphenyl)acetamido)-6-oxohexyl)acrylamide] | 4.6 ± 2.9 µM | 0.0233 s⁻¹ | 4980 M⁻¹ s⁻¹ | –
C=CC(=O)NCCCC[C@H](NC(=O)Cc1ccccc1Cl)C(=O)N1CCN(C(=O)c2cccc3ccccc23)CC1 [Inhibitor 76, (S)-N-(6-(4-(1-naphthoyl)piperazin-1-yl)-5-(2-(2-chlorophenyl)acetamido)-6-oxohexyl)acrylamide] | 18 ± 6.9 µM | 0.0883 s⁻¹ | 4920 M⁻¹ s⁻¹ | EC50 (SCC-13 cells): 92 ± 2 µM
C=CC(=O)NCCCC[C@H](NC(=O)c1ccccc1)C(=O)N1CCN(C(=O)c2cccc3ccccc23)CC1 [Inhibitor 61, (S)-N-(1-(4-(1-naphthoyl)piperazin-1-yl)-6-acrylamido-1-oxohexan-2-yl)benzamide] | 27.6 ± 8.1 µM | – | – | kinact (hTG2): 0.0118 s⁻¹; kinact/KI (hTG2): 983 M⁻¹ s⁻¹; kinact/KI (hTG2; pH 6.95): 807 M⁻¹ s⁻¹; Ki (hTG2; [4]): 12 µM
C=CC(=O)NCCCC[C@H](NC(=O)c1cccnc1)C(=O)N1CCN(C(=O)c2cccc3ccccc23)CC1 [Inhibitor 19, (S)-N-(1-(4-(1-naphthoyl)piperazin-1-yl)-6-acrylamido-1-oxohexan-2-yl)nicotinamide] | – | – | – | Ki (hTG2; [4]): 25.4 ± 2.8 µM; kinact (hTG2; [5]): 0.00983 s⁻¹; kinact/KI (hTG2; [6]): 388 M⁻¹ s⁻¹
C=CC(=O)NCCCC[C@H](NC(=O)c1ccncc1)C(=O)N1CCN(C(=O)c2cccc3ccccc23)CC1 [Inhibitor 20, (S)-N-(1-(4-(1-naphthoyl)piperazin-1-yl)-6-acrylamido-1-oxohexan-2-yl)isonicotinamide] | – | – | – | Ki (hTG2; [4]): 19.3 ± 4.3 µM; kinact (hTG2; [5]): 0.004 s⁻¹; kinact/KI (hTG2; [6]): 212 M⁻¹ s⁻¹
C=CC(=O)NCCCC[C@H](NS(=O)(=O)CC)C(=O)N1CCN(C(=O)c2cccc3ccccc23)CC1 [Inhibitor 90, (S)-N-(6-(4-(1-naphthoyl)piperazin-1-yl)-5-(ethylsulfonamido)-6-oxohexyl)acrylamide] | 26.6 ± 1.1 µM | 0.0138 s⁻¹ | 518 M⁻¹ s⁻¹ | –
C=CC(=O)NCCCC[C@H](NC(=O)C1CC1)C(=O)N1CCN(C(=O)c2cccc3ccccc23)CC1 [Inhibitor 36, (S)-N-(1-(4-(1-naphthoyl)piperazin-1-yl)-6-acrylamido-1-oxohexan-2-yl)cyclopropanecarboxamide] | 10.6 ± 3.6 µM | 0.017 s⁻¹ | 1610 M⁻¹ s⁻¹ | –
C=CC(=O)NCCCC[C@H](NC(=O)Cc1ccccc1Br)C(=O)N1CCN(C(=O)c2cccc3ccccc23)CC1 [Inhibitor 77, (S)-N-(6-(4-(1-naphthoyl)piperazin-1-yl)-5-(2-(2-bromophenyl)acetamido)-6-oxohexyl)acrylamide] | 9.8 ± 1.5 µM | 0.0517 s⁻¹ | 5170 M⁻¹ s⁻¹ | EC50 (SCC-13 cells): 94 ± 2 µM
C=CC(=O)NCCCC[C@H](NC(=O)c1ccc2ccccc2c1)C(=O)N1CCN(C(=O)c2cccc3ccccc23)CC1 [Inhibitor 65, (S)-N-(1-(4-(1-naphthoyl)piperazin-1-yl)-6-acrylamido-1-oxohexan-2-yl)-2-naphthamide] | 8 ± 1.8 µM | 0.00483 s⁻¹ | 608 M⁻¹ s⁻¹ | –
